Laboratory results as given in patent US20240041042A1, “1-(PYRIDYL)-5-AZINYLPYRAZOLE DERIVATIVES, AND THEIR USE FOR CONTROL OF UNDESIRED PLANT GROWTH” (Bayer Aktiengesellschaft, priority 2020, published 2024).
Where two headings read alike, the source gives them in different places.

Legend:
Format in all cases: in vivo
[1] = test system: Polygonum convolvulus (POLCO); assay: Pre-emergence herbicidal action against POLCO
Excerpt: (§1) Seeds of monocotyledonous and dicotyledonous weed plants and crop plants are placed in plastic or organic planting pots and covered with soil. The compounds of the invention, formulated in the form of wettable powders (WP) or as emulsion concentrates (EC), are then applied to the surface of the covering soil as aqueous suspension or emulsion with addition of 0.5% additive at a water application rate equivalent to 600 l/ha. After the treatment, the pots are placed in a greenhouse and kept under good growth conditions for the trial plants. After about 3 weeks, the effect of the preparations is scored visually in comparison with untreated controls as percentages. For example, 100% activity=the plants have died, 0% activity=like control plants.
(§2) Tables A1 to A13 below show the effects of selected compounds of the general formula (I) on various harmful plants and at an application rate corresponding to 320 g/ha or lower, which were obtained by the experimental procedure mentioned above. The appendices “a”, “b” and “c” give differentiation by dosage used with otherwise the same harmful plants tested.

[2] = test system: Echinochloa crus-galli (ECHCG); assay: Pre-emergence herbicidal action against ECHCG
Excerpt: as §1, §2

Zea mays (ZEAMX) = settings: for Post-emergence action against ZEAMX in %: crop plant compatibility, 80 g/ha, effect vs untreated controls
Procedure: (§3) Seeds of monocotyledonous and dicotyledonous weeds and crop plants are placed in sandy loam in plastic or organic planting pots, covered with soil and cultivated in a greenhouse under controlled growth conditions. 2 to 3 weeks after sowing, the test plants are treated at the one-leaf stage. The compounds of the invention, formulated in the form of wettable powders (WP) or as emulsion concentrates (EC), are then sprayed onto the green parts of the plants as aqueous suspension or emulsion with addition of 0.5% additive at a water application rate of 600 l/ha (converted). After the test plants have been kept in the greenhouse under optimum growth conditions for about 3 weeks, the activity of the preparations is rated visually in comparison to untreated controls. For example, 100% activity=the plants have died, 0% activity=like control plants.
(§4) The observed effects on selected crop plants are reported here in comparison to the untreated controls (values in %). The appendices “a”, “b” and “c” give differentiation by dosage used with otherwise the same crop plants tested.

Oryza sativa (ORYSA) = settings: crop plant compatibility
Procedure: as §3, §4

[3] = test system: Matricaria inodora (MATIN); assay: Pre-emergence herbicidal action against MATIN; settings: dosage 320 g/ha
Excerpt: as §1, §2

[4] = test system: Pharbitis purpurea (PHBPU); assay: Pre-emergence herbicidal action against PHBPU; settings: dosage 320 g/ha
Excerpt: as §1, §2

Avena fatua (AVEFA) [5] = assay: Pre-emergence herbicidal action against AVEFA; settings: visual scoring after about 3 weeks vs untreated controls
Excerpt: as §1, §2

Setaria viridis (SETVI) [6] = assay: Post-emergence herbicidal action against SETVI
Procedure: as §3
(§5) Tables B1 to B13 below show the effects of selected compounds of the general formula (I) according to Table 1 on various harmful plants and at an application rate corresponding to 320 g/ha or lower, which were obtained by the experimental procedure mentioned above. The appendices “a”, “b” and “c” give differentiation by dosage used with otherwise the same harmful plants tested.

[7] = test system: Matricaria inodora (MATIN); assay: Post-emergence herbicidal action against MATIN
Procedure: as §3, §5

[8] = test system: Amaranthus retroflexus (AMARE); assay: Post-emergence herbicidal action against AMARE
Procedure: as §3, §5

Setaria viridis (SETVI) [9] = assay: Pre-emergence herbicidal action against SETVI
Excerpt: as §1, §2

[10] = test system: Verconica persica (VERPE); assay: Post-emergence herbicidal action against VERPE
Procedure: as §3, §5

[11] = test system: Verconica persica (VERPE); assay: Pre-emergence herbicidal action against VERPE
Excerpt: as §1, §2

Viola tricolor (VIOTR) [12] = assay: Pre-emergence herbicidal action against VIOTR
Excerpt: as §1, §2

[13] = test system: Alopecurus myosuroides (ALOMY); assay: Pre-emergence herbicidal action against ALOMY; settings: scored visually after about 3 weeks, 100% = plants have died
Excerpt: as §1, §2

[14] = test system: Amaranthus retroflexus (AMARE); assay: Pre-emergence herbicidal action against AMARE; settings: visual scoring after about 3 weeks vs untreated controls
Excerpt: as §1, §2

Lolium rigidum (LOLRI) [15] = assay: Pre-emergence herbicidal action against LOLRI
Excerpt: as §1, §2

[16] = test system: Alopecurus myosuroides (ALOMY); assay: Post-emergence herbicidal action against ALOMY; settings: visual rating about 3 weeks after treatment vs untreated controls (100% = plants have died, 0% = like control plants)
Procedure: as §3, §5

[17] = test system: Echinochloa crus-galli (ECHCG); assay: Post-emergence herbicidal action against ECHCG
Procedure: as §3, §5

[18] = test system: Pharbitis purpurea (PHBPU); assay: Post-emergence herbicidal action against PHBPU
Procedure: as §3, §5

[19] = test system: Polygonum convolvulus (POLCO); assay: Post-emergence herbicidal action against POLCO
Procedure: as §3, §5

Viola tricolor (VIOTR) [20] = assay: Post-emergence herbicidal action against VIOTR
Procedure: as §3, §5

Avena fatua (AVEFA) [21] = assay: Post-emergence herbicidal action against AVEFA; settings: visual rating about 3 weeks after treatment
Procedure: as §3, §5

Lolium rigidum (LOLRI) [22] = assay: Post-emergence herbicidal action against LOLRI; settings: dosage 320 g/ha
Procedure: as §3, §5

[23] = test system: Abutilon theophrasti (ABUTH); assay: Post-emergence herbicidal action against ABUTH; settings: 320 g/ha, visual rating about 3 weeks after treatment vs untreated controls (100% = plants have died, 0% = like control plants)
Procedure: as §3, §5

[24] = 80 g/ha, effect in comparison to untreated controls
[25] = 80 g/ha, visual rating about 3 weeks after treatment vs untreated controls (100% = plants have died, 0% = like control plants)
[26] = 320 g/ha, visual rating about 3 weeks after treatment

| SMILES | Pre-emergence action against POLCO in % ([1]; dosage 320 g/ha) | Pre-emergence action against ECHCG in % ([2]; dosage 320 g/ha) | Post-emergence action against ORYSA in % (Oryza sativa (ORYSA); [24]) | Pre-emergence action against MATIN in % [3] | Pre-emergence action against PHBPU in % [4] | Pre-emergence action against AVEFA in % (Avena fatua (AVEFA) [5]; 320 g/ha) | Post-emergence action against SETVI in % (Setaria viridis (SETVI) [6]; dosage 80 g/ha) | Post-emergence action against AMARE in % [8, 25] | Pre-emergence action against SETVI in % (Setaria viridis (SETVI) [9]; dosage 320 g/ha) | Pre-emergence action against VERPE in % ([11]; dosage 320 g/ha) | Pre-emergence action against VIOTR in % (Viola tricolor (VIOTR) [12]; 320 g/ha, Viola tricolor) | Pre-emergence action against ALOMY ([13]; 80 g/ha) | Pre-emergence action against ALOMY ([13]; 320 g/ha) | Pre-emergence action against AMARE in % ([14]; 80 g/ha) | Pre-emergence action against AMARE in % ([14]; 320 g/ha) | Pre-emergence action against LOLRI in % (Lolium rigidum (LOLRI) [15]; dosage 320 g/ha) | Post-emergence action against ALOMY in % ([16]; 80 g/ha) | Post-emergence action against ECHCG in % ([17]; dosage 80 g/ha) | Post-emergence action against ZEAMX in % (Zea mays (ZEAMX)) | Post-emergence action against PHBPU in % ([18]; dosage 320 g/ha) | other results |
| --- | --- | --- | --- | --- | --- | --- | --- | --- | --- | --- | --- | --- | --- | --- | --- | --- | --- | --- | --- | --- | --- |
| COC(=O)CCOC(=O)COc1nn(-c2ccccn2)c(-c2ccc(F)nc2)c1Br [Example I-116] | 90% | 100% | 10% | 90% | 90% | 90% | 80% | 90% | 100% | 90% | 90% | 90% | 100% | 90% | 100% | 100% | 90% | 80% |  |  | Post-emergence action against ZEAMX in % (crop plant compatibility) (Zea mays (ZEAMX); 20 g/ha, ZEAMX, effect in comparison to untreated controls): 20%; Post-emergence action against ORYSA in % (Oryza sativa (ORYSA); 20 g/ha, effect vs untreated controls): 10%; Post-emergence action against MATIN in % ([7]; dosage 80 g/ha): 80%; Pre-emergence action against SETVI in % (Setaria viridis (SETVI) [9]; dosage 80 g/ha): 90%; Post-emergence action against VERPE in % ([10]; dosage 80 g/ha): 80%; Pre-emergence action against VERPE in % ([11]; dosage 80 g/ha): 90% |
| O=C(O)CSc1nn(-c2ccccn2)c(-c2cncc(F)c2)c1C1CC1 [Example I-153] |  | 100% | 0% | 80% | 80% |  |  | 90% | 90% |  | 100% |  | 90% |  | 100% | 80% |  | 80% | 10% | 90% | Pre-emergence action against ECHCG in % ([2]; dosage 80 g/ha): 80%; Post-emergence action against PHBPU in % ([18]; dosage 80 g/ha): 80%; Post-emergence action against SETVI in % (Setaria viridis (SETVI) [6]; dosage 320 g/ha): 80%; Post-emergence action against MATIN in % ([7]; dosage 320 g/ha): 80%; Post-emergence action against AMARE in % [8, 26]: 90%; Post-emergence action against POLCO in % ([19]; dosage 320 g/ha): 80%; Post-emergence action against VIOTR in % (Viola tricolor (VIOTR) [20]; 320 g/ha): 80%; Pre-emergence action against VIOTR in % (Viola tricolor (VIOTR) [12]; dosage 80 g/ha): 90%; Post-emergence action against ALOMY in % ([16]; 320 g/ha): 80%; Post-emergence action against ECHCG in % ([17]; dosage 320 g/ha): 90%; Post-emergence action against AVEFA in % (Avena fatua (AVEFA) [21]; 80 g/ha): 80%; Post-emergence action against AVEFA in % (Avena fatua (AVEFA) [21]; 320 g/ha): 90% |
| CC(Oc1nn(-c2ccccn2)c(-c2ccc(F)nc2)c1C(F)(F)F)C(=O)O (stereo not shown) [Example I-94] | 90% | 80% | 20% | 100% |  | 90% | 80% | 90% | 100% | 90% | 100% | 80% | 100% | 80% | 100% | 100% | 80% |  | 20% | 80% | Pre-emergence action against POLCO in % ([1]; dosage 80 g/ha): 90%; Pre-emergence action against AVEFA in % (Avena fatua (AVEFA) [5]; 80 g/ha): 80%; Post-emergence action against SETVI in % (Setaria viridis (SETVI) [6]; dosage 320 g/ha): 90%; Post-emergence action against MATIN in % ([7]; dosage 320 g/ha): 80%; Post-emergence action against AMARE in % [8, 26]: 90%; Post-emergence action against POLCO in % ([19]; dosage 80 g/ha): 80%; Post-emergence action against POLCO in % ([19]; dosage 320 g/ha): 90%; Post-emergence action against VIOTR in % (Viola tricolor (VIOTR) [20]; 80 g/ha): 90%; Post-emergence action against VIOTR in % (Viola tricolor (VIOTR) [20]; 320 g/ha): 90%; Post-emergence action against VERPE in % ([10]; 320 g/ha, VERPE): 90%; Pre-emergence action against VIOTR in % (Viola tricolor (VIOTR) [12]; dosage 80 g/ha): 100%; Post-emergence action against LOLRI in % (Lolium rigidum (LOLRI) [22]): 100%; Pre-emergence action against LOLRI in % (Lolium rigidum (LOLRI) [15]; dosage 80 g/ha): 100%; Post-emergence action against ABUTH in % [23]: 80%; Post-emergence action against ALOMY in % ([16]; 320 g/ha): 100%; Post-emergence action against ECHCG in % ([17]; dosage 320 g/ha): 90%; Post-emergence action against AVEFA in % (Avena fatua (AVEFA) [21]; 80 g/ha): 80%; Post-emergence action against AVEFA in % (Avena fatua (AVEFA) [21]; 320 g/ha): 100% |
